Measured values from patent US20060079453A1, “Hla binding peptides and their uses” (priority 2002, published 2006).
No end group written: not given here.

Columns and labels:
Assay in all cases: biochemical
Type in all cases: binding
HLA-DR DRB1*0301 (DR3) = HLA-DR DRB1*0301 (DR3) (Homo sapiens, UniProt P01903+P01911, A100K/A102G/A103R/A169T/F55Y/I96L/K41T/L162R/M171V/P40S/Q125H/Q178H/Q39Y/R42S/S66N/T106N/T262R/W38E/Y61H)
HLA-DR DRB1*0401 (DR4) = HLA-DR DRB1*0401 (DR4) (Homo sapiens, UniProt P01903+P01911, A100K/A169T/F76Y/I96L/K127E/L162R/M171V/N62H/P40V/Q125Y/R42H/S133A/S149N/S66Y/V115G/V209L/W38E); conditions: DRB1 *0401
HLA-DR DRB1*0405 (DR4) = HLA-DR DRB1*0405 (DR4) (Homo sapiens, UniProt P01903+P01911, A100R/A169T/D86S/F76Y/I96L/K127E/L162R/M171V/N62H/P40V/Q125Y/R42H/S133A/S149N/S66Y/V115G/V209L/W38E); conditions: DRB1 *0405
HLA-DR DRB1*0701 (DR7) = HLA-DR DRB1*0701 (DR7) (Homo sapiens, UniProt P01903+P01911, A100R/A102G/A103Q/D57E/D86V/E43K/F76Y/K127E/L162R/M171V/P40G/Q125H/Q99D/R33Q/R42Y/R54Q/S133A/S66F/T210M/V115G/Y107V/Y59L/Y89S); conditions: DRB1 *0701
HLA-DR DRB1*0802 (DR8) = HLA-DR DRB1*0802 (DR8) (Homo sapiens, UniProt P01903+P01911, A100R/A103L/A169T/F76Y/H45Y/I96F/K41T/L162R/M171V/P40S/Q125H/Q178H/Q39Y/Q99D/R218S/R42G/S66Y/V115G/W38E)
HLA-DR DRB1*0901 (DR9) = HLA-DR DRB1*0901 (DR9) (Homo sapiens, UniProt P01903+P01911, A100R/A103E/D57H/D86V/F55Y/F60I/F76Y/I96F/K127E/L162R/M171V/P40D/Q125H/Q99R/R33Q/R42F/S133A/S66N/T210M/V115G/W38K/Y107V/Y59G/Y89S); conditions: DRB1 *0901
HLA-DR DRB1*1101 (DR11) = HLA-DR DRB1*1101 (DR11) (Homo sapiens, UniProt P01903+P01911, A100R/A169T/A87E/I96F/K41T/L162R/M171V/P40S/Q125H/Q178H/Q39Y/Q99D/R42S/S66Y/T262R/V115G/W38E); conditions: DRB1 *1101
HLA-DR DRB1*1101 (DR11), sequence (P01903 26-254 limits assumed, other chains not shown): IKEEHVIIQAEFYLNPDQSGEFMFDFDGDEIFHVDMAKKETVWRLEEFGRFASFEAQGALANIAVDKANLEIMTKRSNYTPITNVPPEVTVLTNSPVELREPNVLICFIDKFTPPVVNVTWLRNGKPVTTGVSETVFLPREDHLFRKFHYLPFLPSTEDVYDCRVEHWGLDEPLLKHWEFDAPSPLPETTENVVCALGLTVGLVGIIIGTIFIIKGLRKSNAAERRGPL

HLA-DR DRB1*1302 (DR13) = HLA-DR DRB1*1302 (DR13) (Homo sapiens, UniProt P01903+P01911, A100E/A169T/K41T/L162R/M171V/P40S/Q125H/Q178H/Q39Y/Q99D/R42S/S66N/T262R/V115G/W38E/Y61H); conditions: DRBI *1302
HLA-DR DRB1*1302 (DR13), sequence (P01903 26-254 limits assumed, other chains not shown): as above

HLA-DR DRB1*1501 (DR15) = HLA-DR DRB1*1501 (DR15) (Homo sapiens, UniProt P01903+P01911); conditions: DRBI *1501
HLA-DR DRB3*0101 (DR52) = HLA-DR DRB3*0101 (DR52) (Homo sapiens, UniProt P01903+P79483)
HLA-DR DRB4*0101 (DR53) = HLA-DR DRB4*0101 (DR53) (Homo sapiens, UniProt P01903+P13762, G164S); conditions: DRB4 *0101
HLA-DR DRB5*0101 (DR51) = HLA-DR DRB5*0101 (DR51) (Homo sapiens, UniProt P01903+Q30154); conditions: DRB5 *0101
HLA-DR DRB1*0101 (DR1) = HLA-DR DRB1*0101 (DR1) (Homo sapiens, UniProt P01903+P01911, A100R/D57E/F55L/F60I/F76Y/I96L/L162R/M171V/P40L/Q125E/R42F/V115G/Y59C); conditions: DRB1 *0101

HLA-DR DRB1*0301 (DR3), sequence (P01903 26-254 limits assumed, other chains not shown): as above

Row | Sequence | IC50 (HLA-DR DRB1*0301 (DR3)) | IC50 (HLA-DR DRB1*0401 (DR4)) | IC50 (HLA-DR DRB1*0405 (DR4)) | IC50 (HLA-DR DRB1*0701 (DR7)) | IC50 (HLA-DR DRB1*0802 (DR8)) | IC50 (HLA-DR DRB1*0901 (DR9)) | IC50 (HLA-DR DRB1*1101 (DR11)) | IC50 (HLA-DR DRB1*1302 (DR13)) | IC50 (HLA-DR DRB1*1501 (DR15)) | IC50 (HLA-DR DRB3*0101 (DR52)) | IC50 (HLA-DR DRB4*0101 (DR53)) | IC50 (HLA-DR DRB5*0101 (DR51)) | IC50 (HLA-DR DRB1*0101 (DR1))
1 | ICLLLIQSWLEPVQF | 50.9 µM | 11.3 µM | 0.071 µM | 0.643 µM | > 33.3 µM | > 59.5 µM | > 15.4 µM | 0.954 µM | 1.77 µM | 188 µM | 0.049 µM | > 9.51 µM | 
2 | DMDKVETFLRIVQTR | 11.2 µM | 2.03 µM | 0.454 µM | 0.436 µM | 0.183 µM | 51.5 µM | 0.206 µM | 3.38 µM | > 86.7 µM | 13.7 µM | 0.19 µM |  | 1.11 µM
3 | QLAFDTYQEFEQNPQ | 7.85 µM | 28.6 µM | 4.84 µM | 21.1 µM | > 33.3 µM | > 59.5 µM | > 15.4 µM | 19.7 µM | > 86.7 µM | 0.738 µM | > 32.8 µM | > 9.51 µM | > 18 µM
4 | VTGERGFFYTPKTRR | 3.02 µM | 7.23 µM | 13.4 µM | 27.8 µM | 9.41 µM | > 300 µM | 10.1 µM | 25.4 µM | 2.82 µM | 244 µM | > 29.8 µM | 0.54 µM | 18.9 µM
5 | RSSNTQTQKLLWQLN | 44.3 µM | 2.14 µM | 12.6 µM | 27.7 µM | 1.28 µM | > 77.3 µM | > 42.6 µM |  | 2.74 µM | 0.751 µM | 0.026 µM | 8.55 µM | 10.5 µM
6 | QSQKLLWQLNGRLEY | 33.4 µM | 0.084 µM | 0.055 µM |  | 0.991 µM | 5.92 µM | > 60.6 µM | 0.155 µM | 0.108 µM | 5.61 µM |  | 0.402 µM | 0.127 µM
7 | LHKLQTYPRTNTGSG | > 205 µM |  | > 7.4 µM | 40.2 µM | 1.62 µM | > 29.2 µM | 6.09 µM | > 12.6 µM | 0.157 µM | > 263 µM | 22.9 µM | 0.04 µM | 2.12 µM
8 | YLVCGERGFFYTPKT | 37.2 µM | 1.44 µM | 0.73 µM | 64.6 µM | > 54.4 µM | 1.52 µM | > 10.5 µM | 9.27 µM | 10.7 µM | 92.8 µM | 34.5 µM | 95.2 µM | 11.1 µM
9 | SDSNIYDLLKDLEEG | 124 µM | 17.5 µM | 0.137 µM | > 85 µM | > 33.3 µM | 50.1 µM | > 15.4 µM | > 16.2 µM | > 86.7 µM | > 18.7 µM | 24.3 µM | > 9.51 µM | > 18 µM
10 | FVNQHLCGSHLVEAL [FVNQHLCGSHLVEAL] | > 187 µM | 19.2 µM | > 20.7 µM | 0.679 µM | > 54.4 µM | > 63 µM | > 1110 µM | 10.6 µM | 1.2 µM | > 95.2 µM |  | 47.2 µM | 0.583 µM
11 | TTVLGKLSQELHKLQ | 92.8 µM |  | > 9.81 µM |  | 16.2 µM | 23.8 µM | 3.52 µM | 12.7 µM | 0.525 µM | > 263 µM | 0.241 µM | 10.6 µM | 
